Common to all, as to assay: NCI tumour cell line growth inhibition, 48 h
For test [1], the system named is A549 NSCLC.
For test [2], the system named is ACHN renal.
Test [3] deals with COLO 205 colon.
For test [4], the system named is HCT-15 colon.
Test [5] concerns HOP-62 NSCLC.
Test [6] has as its system MOLT-4 leukemia.
In test [7] the test system is RPMI-8226 leukemia.
The test system of test [8] is RXF 393 renal.
Test [9] concerns SK-MEL-28 melanoma.
Test [10] concerns SW-620 colon.

From PubChem BioAssay (NCI) come the findings set out here.

“And” between values parts separate entries of the source, which are not always exact repeats. Identical values can stand only once.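 Five concentrations, 48 hours, 96-well plates. GI50: concentration for 50% inhibition of growth. TGI denotes the concentration required for complete inhibition of growth.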

Take `O=C(Nc1ccc2c(c1)OCCO2)C(=O)c1c[nH]c2ccccc12`: the GI50 is 1.18 µM in [1]; 5.19 µM in test [2]; 2.72 µM in test [3]; 0.967 µM in test [4]; 2.9 µM in test [5]; 0.618 µM in test [6]. The GI50 in test [7] is 2.34 µM; in test [8], 2.59 µM; in test [9], 5.6 µM; in test [10], 0.475 µM. Also, the TGI in test [1] was more than 100 µM; in test [2] it was more than 100 µM; in test [3], more than 100 µM; in [4] it was more than 100 µM; in test [5], 21.2 µM; in test [6], more than 100 µM. Moreover, the TGI in test [7] is more than 100 µM; in test [8], 11.1 µM; in [9] it was more than 100 µM; in [10] it was more than 100 µM.

In the case of `C/C(CC(=O)Nc1ccc(NC(=O)C/C(C)=N\NC(N)=O)cc1)=N/NC(N)=O`, the TGI in test [1] is more than 100 µM; in [2], more than 100 µM; in test [3], more than 79.7 µM; in test [4] it was more than 62.5 µM; in test [5], more than 100 µM; in test [6], 97.8 µM. Also, the TGI is 55.5 µM in test [7], more than 100 µM in [8], more than 100 µM in test [9] and more than 100 µM in [10].

Take `COc1ccc(-c2nn3ncccc3c2-c2ccnc(Nc3ccc4c(c3)OCCO4)n2)cc1`: the GI50 in test [1] is 8.41 µM; in test [2] it was 2.86 µM; in test [3], 13.1 µM; in [4], 6.89 µM; in test [5], 9.64 µM; in [6] it was 14.2 µM. Also, the GI50 is 4.69 µM in [7], 3.27 µM in test [8], 16.9 µM in [9] and 14.4 µM in test [10]. Further, the TGI in test [1], in test [2], in [3], in test [4], in test [5] and in test [6] was more than 25 µM throughout. The TGI in [7] is more than 20.7 µM; in [8], more than 25 µM; in test [9], more than 25 µM; in test [10], more than 25 µM.

For the molecule `CCc1nn2ncccc2c1-c1ccnc(NC2CC2)n1`, the GI50 in test [1], in [2], in test [3], in test [4], in test [5] and in test [6] was more than 25 µM in each case. In addition, the GI50 is more than 25 µM in [7], more than 23.4 µM in [8], more than 25 µM in test [9] and more than 25 µM in [10]. Besides, the TGI in test [1], in test [2], in test [3], in test [4], in test [5] and in test [6] was more than 25 µM in each case. Also, the TGI in test [7], in [8], in test [9] and in test [10] was more than 25 µM throughout.

As for `O=C(Oc1ccccc1)C(Br)C(Br)c1ccccc1` (stereo unspecified), the GI50 in test [1] is 18 µM; in test [2] it was 2.06 µM; in test [3], 1.98 µM; in test [4] it was 2.32 µM; in test [5], 14.5 µM; in test [6] it was 3.09 µM. The GI50 was 2.75 µM in test [7], 1.74 µM in test [8], 2.64 µM in [9] and 1.74 µM in test [10]. For the same molecule, the TGI turned out to be 38.5 µM in [1]; 3.79 µM in [2]; 3.83 µM in [3]; 6.24 µM in [4]; 28.3 µM in test [5]; 11.9 µM in [6]. The TGI stood at 7.9 µM in [7], 3.23 µM in test [8], 7.11 µM in [9] and 3.29 µM in test [10].

On to `C=C(CN1c2ccccc2Sc2ccccc21)c1ccc(C(=O)Nc2ccccc2N)cc1`, for which the GI50 in test [1] was 11.4 µM; in test [2], more than 71.7 µM; in test [3] it was 34.7 µM; in test [4] it was more than 42.5 µM; in test [5], more than 46.7 µM; in test [6], 0.276 µM. Further, the GI50 was 0.597 µM in [7], more than 100 µM in test [8], 43.5 µM in [9] and more than 92.3 µM in [10]. Further, the TGI in [1] was more than 100 µM; in test [2], more than 100 µM; in [3], more than 100 µM; in test [4] it was more than 100 µM; in test [5], more than 100 µM; in [6], more than 65.2 µM. Besides, the TGI was more than 25.4 µM in test [7], more than 100 µM in test [8], more than 100 µM in test [9] and more than 100 µM in test [10].

For the molecule `CC1=C(C(=O)Nc2ccccc2)C(c2cc(Cl)cc(Cl)c2)C(C(=O)Nc2ccccc2)=C(C)N1`, the TGI in [1] was determined as 58.8 µM; in [2], 47.2 µM; in test [3] it was 31 µM; in [4] it was 18.6 µM; in [5], 31.1 µM; in test [6], 18.1 µM. Also, the TGI in [7] was found to be 25.2 µM; in [8], 26.3 µM; in test [9], 30.2 µM; in [10] it was 25.9 µM.

Consider `O=C(N/C(=C/c1cccc([N+](=O)[O-])c1)c1nc2ccc(Cl)cc2[nH]1)c1ccccc1`, for which the TGI in [1] was more than 100 µM; in test [2], 48.9 µM; in test [3], more than 100 µM; in test [4], more than 100 µM; in [5], 62.5 µM; in test [6], 49 µM. The TGI in test [7] was 69.7 µM; in test [8], 39.9 µM; in test [9] it was more than 100 µM; in [10], 22.8 µM.

With `CN(C)CCCCCNc1c2ccccc2nc2cccc([N+](=O)[O-])c12`, the GI50 in test [1] was 0.00571 µM; in [2], 0.00374 µM; in [3], 0.00591 µM; in test [4], 0.00218 µM and 0.00274 µM; in test [6], 0.00627 µM; in test [8], 0.00139 µM. In test [10], the GI50 is 0.00632 µM. In addition, the TGI in test [1] is 0.00235 µM; in [2], 0.00325 µM; in test [3] it was 0.00173 µM; in [5], 0.00716 µM; in [6], more than 0.1 µM; in test [7] it was > 0.1 µM and 0.0188 µM. The TGI stood at 0.0032 µM in [8], 0.0113 µM in test [9] and 0.0126 µM in test [10].

For the molecule `COc1ccc(-c2nsc3c2NC(=O)CC3c2cccc(Cl)c2)cc1` (stereo unspecified), the GI50 in [1] was 0.987 µM; in [2], 7.5 µM; in test [3], 0.771 µM; in test [4], 0.646 µM; in test [5] it was 4.04 µM; in test [6] it was 4.11 µM. Further, the GI50 is 3.6 µM in [7], 2.57 µM in [8], 4.54 µM in test [9] and 0.497 µM in test [10]. Moreover, the TGI in test [1] was more than 100 µM; in test [2], more than 100 µM; in test [3] it was more than 42.4 µM; in [4] it was more than 100 µM; in test [5], 98.1 µM; in test [6] it was more than 100 µM. Further, the TGI in test [7] is more than 100 µM; in test [8] it was 33 µM; in [9], more than 100 µM; in test [10], more than 100 µM.

Turning to `CC1=C(C#N)C(/C=C(\Cl)c2ccc(F)cc2)C(C#N)=C(C)N1`, the GI50 in [1], in [2], in test [3], in [4], in test [5] and in test [6] was more than 100 µM in each case. Moreover, the GI50 in test [7] is 36.3 µM; in test [8], more than 100 µM; in [9], more than 100 µM; in test [10], more than 100 µM. In addition, the TGI in [1], in [2], in test [3], in [4], in test [5] and in [6] was more than 100 µM throughout. Besides, the TGI in [7], in test [8], in test [9] and in test [10] was more than 100 µM throughout.

With `S=C(CSc1ccccc1)Nc1cccc2ccccc12`, the TGI in test [1] is more than 100 µM; in [2], more than 100 µM; in test [3], 32 µM; in test [4], more than 100 µM; in [5], more than 100 µM; in test [6], 63.2 µM. Besides, the TGI in test [7], in test [8], in test [9] and in [10] was more than 100 µM throughout.

As for `Nc1nc2c(ccc3ccccc32)s1`, the GI50 in test [1] was more than 100 µM; in test [2] it was more than 100 µM; in test [3], more than 100 µM; in [4], more than 100 µM; in test [5] it was more than 100 µM; in [6], 12.7 µM. Besides, the GI50 in test [7] was 43.8 µM; in test [8] it was 37.2 µM; in test [9] it was more than 100 µM; in [10], more than 100 µM. Also, the TGI in test [1], in test [2], in [3], in test [4], in test [5] and in test [6] was more than 100 µM each time. Further, the TGI in test [7], in test [8], in [9] and in test [10] was more than 100 µM throughout.

Take `CC[C@@H](O)C[C@H]1CCC[C@@]2(C[C@@H]3OC(=O)/C=C/[C@@](C)(O)[C@@H](O)[C@H](C)[C@@H](O)[C@H](OC4CCC(N(C)C)C(C)O4)[C@@H](O)[C@](C)(O)CCCCC/C=C/[C@@H]4CC(C)(C)O[C@@]4(O)C[C@H](O2)[C@H]3C)O1` (stereo partly specified): the TGI in test [1] was 20.5 µM; in test [2] it was 17.6 µM; in test [3] it was 14.5 µM; in [4], 29.2 µM; in test [5], 26.2 µM; in [6], 23.3 µM. Also, the TGI in [7] was found to be 25 µM; in test [8], 34.6 µM; in [9] it was 36.8 µM; in [10], 53.6 µM.

Turning to `Cc1noc(C)c1-c1cnc2c(-c3ccc(C(=O)O)cc3)cn([C@@H](C)c3ccccn3)c2c1`, the GI50 in test [1] was 3.25 µM; in [2], 1.38 µM; in test [3] it was 0.413 µM; in test [4] it was 0.418 µM; in test [5], 0.555 µM; in test [6] it was 12.6 µM. In addition, the GI50 in test [7] is 0.155 µM; in test [8] it was 2.4 µM; in [9], 5.44 µM; in test [10], 15.6 µM. The TGI in test [1], in test [2], in test [3], in test [4], in [5] and in test [6] was more than 100 µM throughout. Moreover, the TGI in test [7] was more than 100 µM; in test [8] it was 34.6 µM; in test [9], more than 100 µM; in test [10], more than 100 µM.

Consider `Cc1c(C)c2c(c(C)c1OCC(=O)O)CC[C@@](C)(CCC[C@@H](C)CCC[C@@H](C)CCCC(C)C)O2`, for which the GI50 is 24.4 µM in test [1]; 53.1 µM in test [2]; 53.4 µM in [3]; 40.8 µM in test [4]; 62.2 µM in test [5]; 50.4 µM in test [6]. Also, the GI50 in test [7] was 56.3 µM; in test [8], 61.6 µM; in [9] it was 62.6 µM; in [10] it was 81.9 µM. The TGI was 107 µM in test [1]; 112 µM in test [2]; 144 µM in [3]; 120 µM in [4]; 161 µM in test [5]; 202 µM in [6]. For the same molecule, the TGI in test [7] is 214 µM; in test [8], 137 µM; in test [9], 129 µM; in [10], 218 µM.

Turning to `O=C(/C=C\n1cnc(-c2cc(C(F)(F)F)cc(C(F)(F)F)c2)n1)N1CC(F)(F)C1`, the GI50 was 0.559 µM in [1]; 1.3 µM in [2]; 0.351 µM in test [3]; 0.651 µM in test [4]; 0.57 µM in [5]; 0.197 µM in [6]. Moreover, the GI50 is 0.408 µM in [7], 0.226 µM in test [8], 0.46 µM in test [9] and 0.318 µM in [10]. Besides, the TGI was more than 25 µM in test [1]; more than 25 µM in test [2]; 4.14 µM in test [3]; 4.86 µM in test [4]; 3.46 µM in test [5]; 0.944 µM in test [6]. Also, the TGI in test [7] stood at 17.9 µM; in [8], 1.09 µM; in test [9], 4.81 µM; in test [10], 12.9 µM.
